The test deals with Meloidogyne incognita. Description: Meloidogyne incognita test (sand, lettuce, gall formation). In kind it is in vivo. The following applies: Meloidogyne incognita, 336 h, after 14 days, read-out: nematicidal efficacy (formation of galls). The essentials:
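Vessels held sand, diluted compound solution, M. incognita egg/larvae suspension and lettuce seeds, and the plants grew for 14 days. Efficacy in % came from root gall formation: 100% means no galls, 0% means galls equal to the untreated control.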

Data on 71 molecules can be found in patent publication US10820591B2, “Substituted sulfonyl amides for controlling animal pests” (Bayer Aktiengesellschaft, priority 2016, dated 2020).

Structures are written as SMILES.

In the case of `O=C(NS(=O)(=O)c1ccccc1Cl)c1cn(-c2ccc(Cl)cc2Cl)cn1` [I-200], the pest or weed control at 20 ppm amounted to 100%.

Consider `CCCn1cnc(C(=O)NS(=O)(=O)c2cccc(Cl)c2)c1Cl` [I-041], for which the pest or weed control at 20 ppm is 100%.

With `O=C(NS(=O)(=O)c1ccc(Cl)cc1Cl)c1cn(-c2cc(Cl)cc(Cl)c2)cn1` [I-189], the pest or weed control at 20 ppm was determined as 90%.

`O=C(NS(=O)(=O)c1ccccc1Cl)c1cn(-c2cc(Cl)cc(Cl)c2)cn1` [I-181]: the pest or weed control at 20 ppm stood at 100%.

Consider `Cc1nc(C(=O)NS(=O)(=O)c2ccc(Cl)cc2)cn1-c1ccc(Cl)cc1` [I-262], for which the pest or weed control at 20 ppm was 100%.

With `O=C(NS(=O)(=O)c1ccccc1Cl)c1cn(Cc2cccc(C(F)(F)F)c2)cn1` [I-162], the pest or weed control at 20 ppm was 100%.

As for `Cn1nc(C(=O)NS(=O)(=O)c2cc(Cl)ccc2Cl)cc1-c1cccc(Cl)c1` [I-132], the pest or weed control at 20 ppm is 90%.

In the case of `Cc1ccc(CS(=O)(=O)NC(=O)c2ncn(CCC(F)(F)F)c2Cl)cc1` [I-092], the pest or weed control at 20 ppm was determined as 70%.

`O=C(NS(=O)(=O)c1ccccc1)c1cn(-c2cc(Cl)cc(C(F)(F)F)c2)cn1` [I-272]: the pest or weed control at 20 ppm was 90%.

For `COc1ccc(Cl)c(S(=O)(=O)NC(=O)c2nc(C)n(-c3cc(Cl)cc(Cl)c3)c2I)c1` [I-110], the pest or weed control at 20 ppm turned out to be 100%.

In the case of `COc1ccc(Cl)c(S(=O)(=O)NC(=O)c2ncn(C(C)CC(F)(F)F)c2Cl)c1` (centres unmarked) [I-100], the pest or weed control at 20 ppm is 90%.

For `COc1ccc(Cl)c(S(=O)(=O)NC(=O)c2cn(-c3cc(Cl)nc(Cl)c3)c(Cl)n2)c1` [I-439], the pest or weed control at 20 ppm amounted to 90%.

On to `CSc1cccc(Cl)c1S(=O)(=O)NC(=O)c1cn(-c2cc(F)cc(F)c2)c(C)n1` [I-386], for which the pest or weed control at 20 ppm was determined as 100%.

Turning to `COc1ccc(S(=O)(=O)NC(=O)c2cn(CCC(F)(F)F)cn2)cc1` [I-026], the pest or weed control at 20 ppm was 90%.

Regarding `COc1ccc(Br)c(S(=O)(=O)NC(=O)c2nc(Cl)n(CCC(F)(F)F)c2Cl)c1` [I-455], the pest or weed control at 20 ppm came to 100%.

`Cc1nc(C(=O)NS(=O)(=O)c2c(Cl)cccc2Cl)cn1-c1cc(Cl)cc(C(F)(F)F)c1` [I-325]: the pest or weed control at 20 ppm turned out to be 90%.

Regarding `CSc1cccc(Cl)c1S(=O)(=O)NC(=O)c1cn(-c2cc(Cl)cc(Cl)c2)c(C)n1` [I-374], the pest or weed control at 20 ppm turned out to be 100%.

As for `O=C(NS(=O)(=O)c1c(Cl)cccc1Cl)c1cn(-c2cccc(Cl)c2Cl)cn1` [I-243], the pest or weed control at 20 ppm is 100%.

With `COc1ccc(Cl)c(S(=O)(=O)NC(=O)c2cn(-c3c(F)cccc3F)c(C)n2)c1` [I-363], the pest or weed control at 20 ppm came out at 90%.

On to `Cn1cc(C(=O)NS(=O)(=O)c2ccccc2Cl)nc1C(F)(F)F` [I-472], for which the pest or weed control at 20 ppm came to 90%.

`COc1ccc(Cl)c(S(=O)(=O)NC(=O)c2cn(-c3c(F)cccc3F)cn2)c1` [I-359]: the pest or weed control at 20 ppm came to 90%.

For the molecule `Cn1nc(C(=O)NS(C)(=O)=O)cc1-c1cccc(Cl)n1` [I-126], the pest or weed control at 20 ppm is 100%.

In the case of `COc1cccc(S(=O)(=O)NC(=O)c2ncn(CCC(C)C)c2Cl)c1` [I-047], the pest or weed control at 20 ppm was determined as 100%.

In the case of `CCc1nc(C(=O)NS(=O)(=O)c2cc(OC)ccc2Cl)cn1-c1cc(F)cc(F)c1` [I-394], the pest or weed control at 20 ppm is 100%.

As for `COc1ccccc1S(=O)(=O)NC(=O)c1ncn(-c2ccc(Cl)cc2)c1Cl` [I-420], the pest or weed control at 20 ppm is 100%.

Regarding `COc1ccc(Cl)c(S(=O)(=O)NC(=O)c2ncn(-c3cccc(Cl)c3)c2C(C)C)c1` [I-488], the pest or weed control at 20 ppm turned out to be 90%.

As for `O=C(NS(=O)(=O)c1c(Cl)cccc1Cl)c1cn(Cc2cc(Cl)cc(Cl)c2)cn1` [I-166], the pest or weed control at 20 ppm was 100%.

In the case of `COc1cccc(S(=O)(=O)NC(=O)c2ncn(C(C)CC(F)(F)F)c2Cl)c1` (centres unmarked) [I-074], the pest or weed control at 20 ppm came to 100%.

Regarding `CC(C)Oc1ccc(Cl)c(S(=O)(=O)NC(=O)c2cn(-c3cc(Cl)cc(Cl)c3)cn2)c1` [I-350], the pest or weed control at 20 ppm was determined as 100%.

Take `Cc1nc(C(=O)NS(=O)(=O)c2ccc(Cl)cc2)cn1-c1cccc(Cl)c1Cl` [I-271]: the pest or weed control at 20 ppm is 100%.

In the case of `O=C(NS(=O)(=O)c1c(Cl)cccc1Cl)c1cn(-c2ccccc2)cn1` [I-192], the pest or weed control at 20 ppm was 100%.

With `COc1ccc(Cl)c(S(=O)(=O)NC(=O)c2cn(-c3ccc(Cl)c(Cl)c3)cn2)c1` [I-218], the pest or weed control at 20 ppm is 70%.

For `COc1ccc(Cl)c(S(=O)(=O)NC(=O)c2ncn(-c3ccc(Cl)cc3Cl)c2C2CC2)c1` [I-486], the pest or weed control at 20 ppm is 70%.

For `COc1ccc(Cl)c(S(=O)(=O)NC(=O)c2cn(-c3cc(F)cc(Cl)c3)c(C)n2)c1` [I-321], the pest or weed control at 20 ppm stood at 90%.

For `Cc1nc(C(=O)NS(=O)(=O)c2ccccc2)cn1-c1ccc(Cl)cc1` [I-256], the pest or weed control at 20 ppm is 100%.

With `Cn1cc(C(=O)NS(=O)(=O)c2ccccc2Br)nc1C(F)(F)F` [I-473], the pest or weed control at 20 ppm turned out to be 90%.

In the case of `COc1ccc(Cl)c(S(=O)(=O)NC(=O)c2nc(Br)n(CCC(F)(F)F)c2Br)c1` [I-108], the pest or weed control at 20 ppm is 100%.

With `COc1ccc(Cl)c(S(=O)(=O)NC(=O)c2cn(-c3cccc(Cl)c3Cl)c(C)n2)c1` [I-263], the pest or weed control at 20 ppm amounted to 90%.

Consider `O=C(NS(=O)(=O)c1c(Cl)cccc1Cl)c1cn(-c2cc(Cl)c(Cl)c(Cl)c2)cn1` [I-305], for which the pest or weed control at 20 ppm was found to be 90%.

With `Cn1nc(C(=O)NS(=O)(=O)c2cc(Cl)ccc2Cl)cc1-c1cc(Cl)cc(Cl)c1` [I-134], the pest or weed control at 20 ppm was found to be 100%.

Regarding `COc1ccc(Cl)c(S(=O)(=O)NC(=O)c2cc(-c3ncc(C(F)(F)F)cc3Cl)n(C)n2)c1` [I-139], the pest or weed control at 20 ppm came to 100%.

Consider `O=C(NS(=O)(=O)c1ccccc1Cl)c1cn(-c2ccccc2)cn1` [I-191], for which the pest or weed control at 20 ppm stood at 100%.

`O=C(NS(=O)(=O)c1ccccc1)c1cn(-c2cc(F)cc(F)c2)cn1` [I-237]: the pest or weed control at 20 ppm was found to be 90%.

As for `O=C(NS(=O)(=O)c1ccccc1)c1cn(-c2ccc(C(F)(F)F)cc2Cl)cn1` [I-194], the pest or weed control at 20 ppm stood at 100%.

Take `CSc1nc(C(=O)NS(=O)(=O)c2ccccc2Cl)cn1CCC(F)(F)F` [I-445]: the pest or weed control at 20 ppm amounted to 90%.

As for `CC(C)Oc1ccc(Cl)c(S(=O)(=O)NC(=O)c2cn(-c3cc(F)cc(C(F)(F)F)c3)cn2)c1` [I-354], the pest or weed control at 20 ppm was 100%.

In the case of `COc1ccc(S(=O)(=O)NC(=O)c2ncn(-c3ccc(Cl)cc3)c2Cl)cc1` [I-415], the pest or weed control at 20 ppm worked out at 90%.

As to `O=C(NS(=O)(=O)c1ccc(C(F)(F)F)cc1)c1ncn(CCC(F)(F)F)c1Cl` [I-021], the pest or weed control at 20 ppm stood at 90%.

For `COc1ccc(F)c(S(=O)(=O)NC(=O)c2cn(-c3cc(F)cc(Cl)c3)c(C)n2)c1` [I-369], the pest or weed control at 20 ppm amounted to 100%.

Consider `O=C(NS(=O)(=O)c1cccc(Cl)c1)c1ncn(-c2ccccc2C(F)(F)F)c1Cl` [I-428], for which the pest or weed control at 20 ppm came to 90%.

For `Cc1nc(C(=O)NS(=O)(=O)c2cc(Cl)ccc2Cl)cn1-c1cc(Cl)cc(Cl)c1` [I-328], the pest or weed control at 20 ppm was found to be 90%.

On to `O=C(NS(=O)(=O)c1ccc(Cl)cc1Cl)c1cn(Cc2ccc(Cl)cc2)cn1` [I-148], for which the pest or weed control at 20 ppm was 100%.

As for `Cc1nc(C(=O)NS(=O)(=O)c2ccccc2Cl)cn1-c1cc(F)cc(Cl)c1` [I-327], the pest or weed control at 20 ppm was found to be 100%.

In the case of `O=C(NS(=O)(=O)c1c(Cl)cccc1Cl)c1cn(-c2cc(C(F)(F)F)cc(C(F)(F)F)c2)cn1` [I-292], the pest or weed control at 20 ppm came out at 90%.

`O=C(NS(=O)(=O)c1c(Cl)cccc1Cl)c1cn(-c2cc(Br)cc(Br)c2)cn1` [I-293]: the pest or weed control at 20 ppm was 100%.

Regarding `O=C(NS(=O)(=O)c1ccccc1Cl)c1cn(-c2cc(F)c(F)c(F)c2)cn1` [I-307], the pest or weed control at 20 ppm was determined as 100%.

As to `CCOc1ccc(Cl)c(S(=O)(=O)NC(=O)c2cn(-c3c(F)cccc3F)cn2)c1` [I-356], the pest or weed control at 4 ppm (4 ppm) stood at 90%.

For the molecule `COc1ccc(Cl)c(S(=O)(=O)NC(=O)c2cn(-c3ccccc3F)cn2)c1` [I-228], the pest or weed control at 20 ppm was 90%.

Turning to `COc1ccc(Br)c(S(=O)(=O)NC(=O)c2cn(-c3cc(F)cc(Cl)c3)cn2)c1` [I-339], the pest or weed control at 20 ppm was found to be 100%.

In the case of `O=C(NS(=O)(=O)c1ccc(Cl)cc1)c1cn(Cc2c(F)cccc2F)cn1` [I-001], the pest or weed control at 20 ppm is 90%.

`O=C(NS(=O)(=O)c1ccc(Cl)cc1)c1cn(Cc2ccccc2)cn1` [I-150]: the pest or weed control at 20 ppm is 100%.

Regarding `COc1ccc(S(=O)(=O)NC(=O)c2cn(CC(F)(F)F)cn2)cc1` [I-027], the pest or weed control at 20 ppm is 90%.

Consider `O=C(NS(=O)(=O)c1ccccc1Cl)c1nc(Cl)n(C2CC2C(F)(F)F)c1Cl` (centres unmarked) [I-469], for which the pest or weed control at 20 ppm worked out at 100%.

Take `COc1ccc(Cl)c(S(=O)(=O)NC(=O)c2cn(C)c(C(F)(F)F)n2)c1` [I-475]: the pest or weed control at 20 ppm stood at 90%.

In the case of `O=C(NS(=O)(=O)c1c(Cl)cccc1Cl)c1cn(-c2ccc(Cl)cc2)cn1` [I-186], the pest or weed control at 20 ppm was 90%.

As for `COc1ccc(F)c(S(=O)(=O)NC(=O)c2cn(-c3cc(Cl)cc(C(F)(F)F)c3)cn2)c1` [I-335], the pest or weed control at 20 ppm worked out at 90%.

Turning to `Cc1cc(C)cc(-n2cnc(C(=O)NS(=O)(=O)c3c(Cl)cccc3Cl)c2)c1` [I-299], the pest or weed control at 20 ppm was determined as 90%.

With `O=C(NS(=O)(=O)c1ccc(Cl)cc1)c1ncn(CCC(F)(F)F)c1Cl` [I-012], the pest or weed control at 20 ppm amounted to 100%.

As to `COc1ccc(Br)c(S(=O)(=O)NC(=O)c2cn(-c3cc(Cl)cc(Cl)c3)c(C)n2)c1` [I-368], the pest or weed control at 20 ppm amounted to 90%.

For `COc1ccc(S(=O)(=O)NC(=O)c2cn(-c3cc(F)cc(F)c3)c(C)n2)cc1` [I-410], the pest or weed control at 20 ppm came out at 100%.

Regarding `O=C(NS(=O)(=O)c1ccccc1Cl)c1cn(-c2cc(Br)cc(Br)c2)cn1` [I-289], the pest or weed control at 20 ppm is 90%.
